Measured values: the supplement of paper PMC10307832

Legend:
Test in all cases: relative viability (nuclei count vs DMSO), 5 days (fraction); higher = more cells survive
LXF-289 = tested on: LXF-289
Outline: (§1)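 Dosing by pin tool came one day after lung cancer cell lines were seeded in 1536-well plates, using either one drug or a fixed anchor-drug dose plus five library-drug doses (not always all listed) in √10 steps. After 5 days, nuclei were counted on 4× images. Relative viability is treated-well nuclei count divided by vehicle-well nuclei count, and values are medians of duplicate plates.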

LU99A = tested on: LU99A
Outline: as §1

RERF-LC-KJ = tested on: RERF-LC-KJ
Outline: as §1

HCC-827 = tested on: HCC-827
Outline: as §1

NCI-H1993 = tested on: NCI-H1993
Outline: as §1

201T = tested on: 201T
Outline: as §1

NCI-H1944 = tested on: NCI-H1944
Outline: as §1

BEN = tested on: BEN
Outline: as §1

LC-2-ad = tested on: LC-2-ad
Outline: as §1

NCI-H596 = tested on: NCI-H596
Outline: as §1

HCC-78 = tested on: HCC-78
Outline: as §1

NCI-H1755 = tested on: NCI-H1755
Outline: as §1

HCC-15 = tested on: HCC-15
Outline: as §1

HARA = tested on: HARA
Outline: as §1

HCC-366 = tested on: HCC-366
Outline: as §1

NCI-H1734 = tested on: NCI-H1734
Outline: as §1

NCI-H3122 = tested on: NCI-H3122
Outline: as §1

NCI-H1975 = tested on: NCI-H1975
Outline: as §1

EKVX = tested on: EKVX
Outline: as §1

SMILES: O=C(O)CCCCC(CCSCc1ccccc1)SCc1ccccc1 (stereo not drawn) [CPI-613] + NC(=O)Nc1cc(-c2cccc(F)c2)sc1C(=O)N[C@H]1CCCNC1 [AZD7762] (partner 0.2 µM)
- relative viability (LXF-289; first compound 5 µM): 1
- relative viability (LXF-289; first compound 15.81 µM): 1
- relative viability (LXF-289; first compound 50 µM): 1.03
- relative viability (LXF-289; first compound 158.11 µM): 0.722
- relative viability (LXF-289; first compound 500 µM): 0.774
- relative viability (LU99A; first compound 5 µM): 0.338
- relative viability (LU99A; first compound 15.81 µM): 0.326
- relative viability (LU99A; first compound 50 µM): 0.322
- relative viability (LU99A; first compound 158.11 µM): 0.335
- relative viability (LU99A; first compound 500 µM): 0.0775
- relative viability (RERF-LC-KJ; first compound 5 µM): 0.98
- relative viability (RERF-LC-KJ; first compound 15.81 µM): 0.917
- relative viability (RERF-LC-KJ; first compound 50 µM): 1
- relative viability (RERF-LC-KJ; first compound 158.11 µM): 0.94
- relative viability (RERF-LC-KJ; first compound 500 µM): 0.921
- relative viability (HCC-827; first compound 5 µM): 0.217
- relative viability (HCC-827; first compound 15.81 µM): 0.181
- relative viability (HCC-827; first compound 50 µM): 0.201
- relative viability (HCC-827; first compound 158.11 µM): 0.179
- relative viability (HCC-827; first compound 500 µM): 0.127
- relative viability (NCI-H1993; first compound 5 µM): 0.743
- relative viability (NCI-H1993; first compound 15.81 µM): 0.688
- relative viability (NCI-H1993; first compound 50 µM): 0.65
- relative viability (NCI-H1993; first compound 158.11 µM): 0.537
- relative viability (NCI-H1993; first compound 500 µM): 0.286
- relative viability (201T; first compound 5 µM): 0.581
- relative viability (201T; first compound 15.81 µM): 0.62
- relative viability (201T; first compound 50 µM): 0.66
- relative viability (201T; first compound 158.11 µM): 0.318
- relative viability (201T; first compound 500 µM): 0.564
- relative viability (NCI-H1944; first compound 5 µM): 0.511
- relative viability (NCI-H1944; first compound 15.81 µM): 0.487
- relative viability (NCI-H1944; first compound 50 µM): 0.473
- relative viability (NCI-H1944; first compound 158.11 µM): 0.307
- relative viability (NCI-H1944; first compound 500 µM): 0.345
- relative viability (BEN; first compound 5 µM): 0.653
- relative viability (BEN; first compound 15.81 µM): 0.485
- relative viability (BEN; first compound 50 µM): 0.697
- relative viability (BEN; first compound 158.11 µM): 0.672
- relative viability (BEN; first compound 500 µM): 0.526
- relative viability (LC-2-ad; first compound 5 µM): 0.771
- relative viability (LC-2-ad; first compound 15.81 µM): 0.813
- relative viability (LC-2-ad; first compound 50 µM): 0.825
- relative viability (LC-2-ad; first compound 158.11 µM): 0.283
- relative viability (LC-2-ad; first compound 500 µM): 0.01
- relative viability (NCI-H596; first compound 5 µM): 1.16
- relative viability (NCI-H596; first compound 15.81 µM): 0.939
- relative viability (NCI-H596; first compound 50 µM): 1.11
- relative viability (NCI-H596; first compound 158.11 µM): 0.818
- relative viability (NCI-H596; first compound 500 µM): 0.0374
- relative viability (HCC-78; first compound 15.81 µM): 0.606
- relative viability (HCC-78; first compound 50 µM): 0.674
- relative viability (HCC-78; first compound 158.11 µM): 0.543
- relative viability (HCC-78; first compound 500 µM): 0.738
- relative viability (NCI-H1755; first compound 5 µM): 0.383
- relative viability (NCI-H1755; first compound 15.81 µM): 0.4
- relative viability (NCI-H1755; first compound 50 µM): 0.319
- relative viability (NCI-H1755; first compound 158.11 µM): 0.397
- relative viability (NCI-H1755; first compound 500 µM): 0.375
- relative viability (HCC-15; first compound 5 µM): 1.21
- relative viability (HCC-15; first compound 15.81 µM): 1.04
- relative viability (HCC-15; first compound 50 µM): 1.14
- relative viability (HCC-15; first compound 158.11 µM): 0.819
- relative viability (HCC-15; first compound 500 µM): 0.476
- relative viability (HARA; first compound 5 µM): 0.37
- relative viability (HARA; first compound 15.81 µM): 0.0178
- relative viability (HARA; first compound 50 µM): 0.302
- relative viability (HARA; first compound 158.11 µM): 0.204
- relative viability (HARA; first compound 500 µM): 0.041
- relative viability (HCC-366; first compound 5 µM): 0.256
- relative viability (HCC-366; first compound 15.81 µM): 0.203
- relative viability (HCC-366; first compound 50 µM): 0.282
- relative viability (HCC-366; first compound 158.11 µM): 0.138
- relative viability (HCC-366; first compound 500 µM): 0.0061
- relative viability (NCI-H1734; first compound 5 µM): 0.505
- relative viability (NCI-H1734; first compound 15.81 µM): 0.482
- relative viability (NCI-H1734; first compound 50 µM): 0.413
- relative viability (NCI-H1734; first compound 158.11 µM): 0.272
- relative viability (NCI-H1734; first compound 500 µM): 0.0982
- relative viability (NCI-H3122; first compound 5 µM): 0.989
- relative viability (NCI-H3122; first compound 15.81 µM): 0.977
- relative viability (NCI-H3122; first compound 50 µM): 1.01
- relative viability (NCI-H3122; first compound 158.11 µM): 0.973
- relative viability (NCI-H3122; first compound 500 µM): 0.842
- relative viability (NCI-H1975; first compound 5 µM): 0.734
- relative viability (NCI-H1975; first compound 15.81 µM): 0.682
- relative viability (NCI-H1975; first compound 50 µM): 0.581
- relative viability (NCI-H1975; first compound 158.11 µM): 0.666
- relative viability (NCI-H1975; first compound 500 µM): 0.677
- relative viability (EKVX; first compound 5 µM): 0.731
- relative viability (EKVX; first compound 15.81 µM): 0.646
- relative viability (EKVX; first compound 50 µM): 0.505
- relative viability (EKVX; first compound 500 µM): 0.62
